Our source for the IC50 values is US20230271993A1, “3-DEOXY-2-KETOALDONIC ACID NITROGEN-CONTAINING DERIVATIVE, PREPARATION METHOD THEREOF, AND USE THEREOF” (SICHUAN UNIVERSITY, priority 2020, published 2023).

Each structure is given as a SMILES string. Like-named read-outs stand apart in the source and are kept apart here.

Assay [1] concerns Rhinovirus (HRV-1059)-infected H1 Hela cells. The assay can be described thus: Anti-rhinovirus (HRV-1059) activity test, CellTiter-Glo cell viability. The settings on record: 100 TCID50 virus per well, 6 days at 37° C., read-out: IC50 Anti-HRV (H1Hela). Type of assay: cell-based, rhinovirus HRV-1059 strain. From the text:
(2) Anti-Rhinovirus (HRV-1059) Activity Test
Test object: Rhinovirus (HRV-1059)-infected H1 Hela cells
Testing method: • (1) H1 Hela cells (purchased from the National Experimental Cell Resource Sharing Platform, Cat. No. 3111C0001CCC000344) were inoculated into a 96-well plate at a concentration of 1.5×10^4 cells/well, and the cell culture medium was DMEM medium (purchased from Gibco, Cat. No. 11995065) containing 10% FBS (purchased from Gibco, Cat. No. 16000044), the plate was placed in a CO2 incubator and incubated at 37° C. for 24 hours. • (2) The original medium in the 96-well plate was discarded, 100 μL of DMEM medium (purchased from Gibco, Cat. No. 11995065) containing 2% FBS (purchased from Gibco, Cat. No. 16000044) was taken and added into the cells. Then the stock solution of the compound to be tested was serially diluted with the above DMEM medium to 800 μM, 266.67 μM, 88.89 μM, 29.63 μM, 9.88 μM, 3.29 μM, 1.10 μM, 0.37 μM, 0.12 μM, 0.04 μM, and 50 μL was added to the cell culture plate. The stock solution of positive compound NITD008 (purchased from MCE Company, Cat. No. HY-12957) was serially diluted with the above DMEM medium to 80 μM, 26.67 μM, 8.89 μM, 2.96 μM, 0.99 μM, 0.33 μM, 0.11 μM, 0.04 μM, 0.012 μM, 0.004 μM, 50 μL was added to the cell culture plate. Finally, 50 μL of the rhinovirus HRV-1059 strain (purchased from ATCC, Cat. No. VR-482) diluted with DMEM medium containing 2% FBS was added to the cells, the amount of virus contained in each well was 100 TCID50. The final concentration of the compound to be tested was 0.25 times of the pretreatment concentration, that was, the initial concentration was 200 μM, the dilution was carried out by 3-fold series, the final concentrations of the compound to be tested were: 200 μM, 66.67 μM, 22.22 μM, 7.41 μM, 2.47 μM, 0.82 μM, 0.27 μM, 0.09 μM, 0.03 μM, 0.01 μM. The final concentrations of the positive compound were: 20 μM, 6.67 μM, 2.22 μM, 0.74 μM, 0.25 μM, 0.082 μM, 0.027 μM, 0.009 μM, 0.003 μM, 0.001 μM. Negative control (to the cell well, DMSO and medium were added, without drug) and positive control (to the cell well, DMSO, medium and virus were added, without drug) were set. The cell culture plates were incubated at 37° C. for 6 days. • (3) The Buffer and the substrate of CellTiter-Glo® Chemiluminescent Cell Viability Assay (purchased from Promega, Cat. No. G7573) was mixed in the dark to obtain a working solution. The working solution was mixed with PBS (purchased from Gibco, Cat. No. 10010049) at a ratio of 4:6. After the medium in the cell culture plate was discarded, 100 μl of detection reagent was added to each well, and the 96-well plate was shaken for 5 min with an orbital shaker to induce cell lysis. After stabilizing the signal in the dark for 2 minutes, a microplate reader (purchased from Molecular Devices, model SpectraMax M5) was used to measure the chemiluminescent units, the plate reading program was the preset program of CellTiter-Glo, and the cell viability was calculated:
Cell viability (%)=(A(drug treatment group)−A(positive control))/(A(negative control)−A(positive control))×[…]
(§1) wherein, A represented the reading of the microplate reader.
(§2) Result evaluation: origin8.0 software was used to carry out the S-type curve fitting on the inhibition rate-concentration, and the IC50 value of the compound to be tested was calculated.

The subject of assay [2] is Zika virus-infected BHK cells. The assay can be described thus: Anti-Zika (ZIKV) virus activity test, CellTiter-Glo cell viability. The settings on record: 100 TCID50 virus per well, 9 days at 37° C. In kind it is cell-based, Zika virus SZ-SMGC-01 strain. The protocol:
(1) Anti-Zika (ZIKV) Virus Activity Test
Test object: Zika virus-infected BHK cells
Testing Method: • (1) BBHK cells (preserved by the Academy of Military Medical Sciences) were inoculated into a 96-well plate at a concentration of 5×10^3 cells/well, and the cell culture medium was DMEM medium (purchased from Gibco Company, Cat. No. 11995065) containing 10% FBS (purchased from Gibco, Cat. No. 16000044), the plate was placed in a CO2 incubator, and incubated at 37° C. for 24 hours. • (2) The original medium in the 96-well plate was discarded, 100 μL of DMEM medium (purchased from Gibco, Cat. No. 11995065) containing 2% FBS (purchased from Gibco, Cat. No. 16000044) was taken and added into the cells. Then, the stock solution of the compound to be tested was serially diluted with the above-mentioned DMEM medium to 800 μM, 266.67 μM, 88.89 μM, 29.63 μM, 9.88 μM, 3.29 μM, 1.10 μM, 0.37 μM, and 50 μL was added to the cell culture plate. The stock solution of positive compound NITD008 (purchased from MCE Company, Cat. No. HY-12957) was serially diluted with the above DMEM medium to 80 μM, 26.67 μM, 8.89 μM, 2.96 μM, 0.99 μM, 0.33 μM, 0.11 μM, 0.04 μM, and 50 μL was added to the cell culture plate. Finally, 50 μL of Zika virus SZ-SMGC-01 strain (preserved by the Academy of Military Medical Sciences) diluted in DMEM medium containing 2% FBS was added to the cells, each well contained 100 TCID50 of the virus. The final concentration of the compound to be tested was 0.25 times the pretreatment concentration, that was, the initial concentration was 200 μM, and dilution was carried out by 3-fold series, so that the final concentrations of the compound to be tested were: 200 μM, 66.67 μM, 22.22 μM, 7.41 μM, 2.47 μM, 0.82 μM, 0.27 μM, 0.09 μM. The final concentrations of the positive compound were: 20 μM, 6.67 μM, 2.22 μM, 0.74 μM, 0.25 μM, 0.082 μM, 0.027 μM, 0.009 μM. Negative control (to the cell well, DMSO and culture medium were added, without drug) and positive control (to the cell well, DMSO, culture medium and virus were added, without drug) were set. The cell culture plates were incubated at 37° C. for 9 days. • (3) The Buffer and the substrate of CellTiter-Glo® Chemiluminescent Cell Viability Assay (purchased from Promega, Cat. No. G7573) were mixed in the dark to prepare a working solution. The working solution was mixed with PBS (purchased from Gibco, Cat. No. 10010049) at a ratio of 4:6. After the medium in the cell culture plate was discarded, 100 μl of detection reagent was added to each well, and the 96-well plate was shaken for 5 min with an orbital shaker to induce cell lysis. After stabilizing the signal in the dark for 2 minutes, a microplate reader (purchased from Molecular Devices, model SpectraMax M5) was used to measure the chemiluminescent units, the plate reading program was the preset program of CellTiter-Glo, and the cell viability was calculated:
Cell viability (%)=(A(drug treatment group)−A(positive control))/(A(negative control)−A(positive control))×100%
as §1, §2
(In general: ATP-based viability assays read luminescence as a measure of living cells.)

Where [3] appears, read: Enterovirus, HRV1059, H1-HeLa, 144 h.

Broadly, the IC50 is the concentration that gives 50% inhibition. Take `COC(=O)[C@@]1(N=[N+]=[N-])OC([C@H](OC(=O)c2ccccc2)[C@@H](COC(=O)c2ccccc2)OC(=O)c2ccccc2)[C@H](NC(C)=O)C(OC(=O)c2ccccc2)C1N=[N+]=[N-]` (stereo partly shown) [Compound 6a]: the IC50 in assay [1] (setting [3]) is over 200 µM; in assay [2] (Zika virus, BHK, 216 h) it was 21.7 µM.

Take `COC(=O)[C@@]1(N=[N+]=[N-])OC([C@H](O[Si](C)(C)C(C)(C)C)[C@H]2COC(C)(C)O2)[C@H](NC(C)=O)C(O[Si](C)(C)C(C)(C)C)C1N=[N+]=[N-]` (single isomer, unassigned) [Compound 4b]: the figures for the IC50 in assay [1] and in assay [2] were 18.9 µM and 2.49 µM, respectively.

Regarding `COC(=O)[C@@]1(N=[N+]=[N-])OC([C@H](OC(=O)c2ccccc2)[C@@H](COC(=O)c2ccccc2)OC(=O)c2ccccc2)[C@H](NC(C)=O)C(OC(=O)c2ccccc2)C1N=[N+]=[N-]` (stereo partly shown) [Compound 6c], the figures for the IC50 in assay [1] and in assay [2] were over 200 µM and 11 µM, respectively.

`C#C[C@@]1(O)[C@H](O)[C@@H](CO)O[C@H]1n1ccc2c(N)ncnc21` [NITD008, reference compound]: the values for the 50% inhibitory concentration (IC50) in assay [1] and in assay [2] were 0.05 µM and 1 µM, respectively.

For `COC(=O)[C@]1(N=[N+]=[N-])OC([C@@H](COC(C)=O)OC(C)=O)[C@H](OC(C)=O)C(OC(C)=O)C1N=[N+]=[N-]` (stereo partly shown) [Compound 10a], the IC50 in assay [1] (setting [3]) was 10.8 µM; in assay [2] (Zika virus, BHK, 216 h), over 200 µM.

In the case of `COC(=O)[C@@]1(N=[N+]=[N-])OC([C@H](OC(=O)c2ccccc2)[C@@H](COC(=O)c2ccccc2)OC(=O)c2ccccc2)[C@H](NC(C)=O)C(OC(=O)c2ccccc2)C1N` (stereo partly shown) [Compound 14], the IC50 in assay [1] (setting [3]) is over 200 µM; in assay [2] (Zika virus, BHK, 216 h), 14.6 µM.

Turning to `COC(=O)[C@@]1(N=[N+]=[N-])OC([C@H](O[Si](C)(C)C(C)(C)C)[C@H]2COC(C)(C)O2)[C@H](NC(C)=O)C(O[Si](C)(C)C(C)(C)C)C1N=[N+]=[N-]` (single isomer, unassigned) [Compound 4a], the IC50 in assay [1] amounted to 4.58 µM; in assay [2] (Zika virus, BHK, 216 h), 1.41 µM.

As for `CC1(C)OC[C@H](C2O[C@](N=[N+]=[N-])(C(=O)O)C(N=[N+]=[N-])C(O)[C@H]2O)O1` (stereo partly shown) [Compound 19], the IC50 in assay [1] (setting [3]) is 24.6 µM; in assay [2] (Zika virus, BHK, 216 h), over 200 µM.

Take `COC(=O)[C@]1(N=[N+]=[N-])OC([C@H](OC(=O)c2ccccc2)[C@@H](COC(=O)c2ccccc2)OC(=O)c2ccccc2)[C@H](NC(C)=O)C(OC(=O)c2ccccc2)C1N=[N+]=[N-]` (stereo partly shown) [Compound 6b]: the IC50 in assay [1] (setting [3]) is over 200 µM; in assay [2] (Zika virus, BHK, 216 h), 10.6 µM.

In the case of `CC(=O)N[C@@H]1C(OC(=O)c2ccccc2)C(N=[N+]=[N-])[C@@](N=[N+]=[N-])(C(=O)O)OC1[C@H](OC(=O)c1ccccc1)[C@@H](COC(=O)c1ccccc1)OC(=O)c1ccccc1` (stereo partly shown) [Compound 13], the IC50 was determined as 13.3 µM in assay [1] (setting [3]) and 20 µM in assay [2] (Zika virus, BHK, 216 h).

Take `COC(=O)[C@]1(N=[N+]=[N-])OC([C@H](OC(=O)c2ccccc2)[C@@H](COC(=O)c2ccccc2)OC(=O)c2ccccc2)[C@H](NC(C)=O)C(OC(=O)c2ccccc2)C1N=[N+]=[N-]` (stereo partly shown) [Compound 6d]: the IC50 in assay [1] was over 200 µM; in assay [2], 10.3 µM.
